Measurements taken from patent US20210267204A1, “MICROBIOCIDAL OXADIAZOLE DERIVATIVES” (SYNGENTA CROP PROTECTION AG, priority 2018, published 2021).

Experiments:
[1] = system: Puccinia recondita f. sp. tritici; experiment: Fungicidal activity against Puccinia recondita f. sp. tritici / wheat / leaf disc preventative (brown rust); assay type: in vivo; details: foliar, 200 ppm in the applied formulation, wheat leaf segments cv. Kanzler, inoculated 1 day after application, assessed 7 to 9 days after application, compared to untreated, read-out: disease control
Experimental: Leaf disks or leaf segments of various plant species are cut from plants grown in a greenhouse. The cut leaf disks or segments are placed in multiwell plates (24-well format) onto water agar. The leaf disks are sprayed with a test solution before (preventative) or after (curative) inoculation. Compounds to be tested are prepared as DMSO solutions (max. 10 mg/mL) which are diluted to the appropriate concentration with 0.025% Tween20 just before spraying. The inoculated leaf disks or segments are incubated under defined conditions (temperature, relative humidity, light, etc.) according to the respective test system. A single evaluation of disease level is carried out 3 to 14 days after inoculation, depending on the pathosystem. Percent disease control relative to the untreated check leaf disks or segments is then calculated. Wheat leaf segments cv. Kanzler were placed on agar in multiwell plates (24-well format) and sprayed with the formulated test compound diluted in water. The leaf disks were inoculated with a spore suspension of the fungus 1 day after application. The inoculated leaf segments were incubated at 19° C. and 75% relative humidity (rh) under a light regime of 12 hours light/12 hours darkness in a climate cabinet and the activity of a compound was assessed as percent disease control compared to untreated when an appropriate level of disease damage appears in untreated check leaf segments (7 to 9 days after application). The following compounds at 200 ppm in the applied formulation give at least 80% disease control in this test when compared to untreated control leaf disks under the same conditions, which show extensive disease development.

[2] = system: Puccinia recondita f. sp. tritici; experiment: Fungicidal activity against Puccinia recondita f. sp. tritici / wheat / leaf disc curative (brown rust); assay type: in vivo; details: foliar, 200 ppm in the applied formulation, wheat leaf segments cv. Kanzler, applied 1 day after inoculation, assessed 6 to 8 days after application, compared to untreated, read-out: disease control
Experimental: Leaf disks or leaf segments of various plant species are cut from plants grown in a greenhouse. The cut leaf disks or segments are placed in multiwell plates (24-well format) onto water agar. The leaf disks are sprayed with a test solution before (preventative) or after (curative) inoculation. Compounds to be tested are prepared as DMSO solutions (max. 10 mg/mL) which are diluted to the appropriate concentration with 0.025% Tween20 just before spraying. The inoculated leaf disks or segments are incubated under defined conditions (temperature, relative humidity, light, etc.) according to the respective test system. A single evaluation of disease level is carried out 3 to 14 days after inoculation, depending on the pathosystem. Percent disease control relative to the untreated check leaf disks or segments is then calculated. Wheat leaf segments cv. Kanzler are placed on agar in multiwell plates (24-well format). The leaf segments are then inoculated with a spore suspension of the fungus. Plates were stored in darkness at 19° C. and 75% relative humidity. The formulated test compound diluted in water was applied 1 day after inoculation. The leaf segments were incubated at 19° C. and 75% relative humidity under a light regime of 12 hours light/12 hours darkness in a climate cabinet and the activity of a compound was assessed as percent disease control compared to untreated when an appropriate level of disease damage appears in untreated check leaf segments (6 to 8 days after application). The following compounds at 200 ppm in the applied formulation give at least 80% disease control in this test when compared to untreated control leaf disks under the same conditions, which show extensive disease development.

Phakopsora pachyrhizi = experiment: Fungicidal activity against Phakopsora pachyrhizi / soybean / leaf disc preventative (Asian soybean rust); assay type: in vivo; details: foliar, 200 ppm in the applied formulation, soybean leaf disks, inoculated one day after application, assessed 12 to 14 days after application, compared to untreated, read-out: disease control
Experimental: Leaf disks or leaf segments of various plant species are cut from plants grown in a greenhouse. The cut leaf disks or segments are placed in multiwell plates (24-well format) onto water agar. The leaf disks are sprayed with a test solution before (preventative) or after (curative) inoculation. Compounds to be tested are prepared as DMSO solutions (max. 10 mg/mL) which are diluted to the appropriate concentration with 0.025% Tween20 just before spraying. The inoculated leaf disks or segments are incubated under defined conditions (temperature, relative humidity, light, etc.) according to the respective test system. A single evaluation of disease level is carried out 3 to 14 days after inoculation, depending on the pathosystem. Percent disease control relative to the untreated check leaf disks or segments is then calculated. Soybean leaf disks are placed on water agar in multiwell plates (24-well format) and sprayed with the formulated test compound diluted in water. One day after application leaf discs are inoculated by spraying a spore suspension on the lower leaf surface. After an incubation period in a climate cabinet of 24-36 hours in darkness at 20° C. and 75% rh leaf disc are kept at 20° C. with 12 hours light/day and 75% rh. The activity of a compound is assessed as percent disease control compared to untreated when an appropriate level of disease damage appears in untreated check leaf disks (12 to 14 days after application). The following compounds at 200 ppm in the applied formulation give at least 80% disease control in this test when compared to untreated control leaf disks under the same conditions, which show extensive disease development.

[3] = system: Glomerella lagenarium (Colletotrichum lagenarium); experiment: Fungicidal activity against Glomerella lagenarium (Colletotrichum lagenarium) liquid culture / cucumber / preventative (anthracnose); assay type: cell-based; details: Colletotrichum orbiculare; 20 ppm in the applied formulation; liquid culture in PDB, 24° C.; 3 to 4 days after application; compared to untreated control; read-out: disease control (inhibition of growth measured photometrically)
Experimental: Mycelia fragments or conidia suspensions of a fungus prepared either freshly from liquid cultures of the fungus or from cryogenic storage, are directly mixed into nutrient broth. DMSO solutions of the test compound (max. 10 mg/mL) are diluted with 0.025% Tween20 by a factor of 50 and 10 μL of this solution is pipetted into a microtiter plate (96-well format). The nutrient broth containing the fungal spores/mycelia fragments is then added to give an end concentration of the tested compound. The test plates are incubated in the dark at 24° C. and 96% relative humidity (rh). The inhibition of fungal growth is determined photometrically after 2 to 7 days, depending on the pathosystem, and percent antifungal activity relative to the untreated check is calculated. Conidia of the fungus from cryogenic storage are directly mixed into nutrient broth (PDB—potato dextrose broth). After placing a (DMSO) solution of test compound into a microtiter plate (96-well format), the nutrient broth containing the fungal spores is added. The test plates are incubated at 24° C. and the inhibition of growth is measured photometrically 3 to 4 days after application. The following compounds at 20 ppm in the applied formulation give at least 80% disease control in this test when compared to untreated control under the same conditions, which show extensive disease development.

melting point: 135.5 to 140.3 °C
SMILES: COCC(=S)NCc1cnn(Cc2ccc(-c3noc(C(F)(F)F)n3)s2)c1 [Compound 1.14, 2-methoxy-N-[[1-[[5-[5-(trifluoromethyl)-1,2,4-oxadiazol-3-yl]-2-thienyl]methyl]pyrazol-4-yl]methyl]thioacetamide]
pest or weed control at 200 ppm [1]: ≥ 80% | pest or weed control at 200 ppm [2]: ≥ 80% | pest or weed control at 200 ppm (Phakopsora pachyrhizi): ≥ 80% | inhibition at 20 ppm [3]: ≥ 80%
